The values that follow come from patent publication US20190352276A1, “INHIBITORS OF BRUTON'S TYROSINE KINASE” (Joint Stock Company "Biocad", priority 2016, published 2019).

The nature of series [1]: Stability in human blood plasma. Particulars: 10 μM in pooled human blood plasma, incubated 4 hours at 37° C.
The subject of series [2] is DOHH2 (follicular lymphoma). In words: Antiproliferative activity, DOHH2 cells (Alamar Blue). The conditions noted are these: Homo sapiens, DOHH-2, Table 10, 72 h, average of several tests. Type of series: cell-based. On the procedure:
Antiproliferative activity of BTK inhibitors was measured in cell-based bioassay on B-cells cultures: Mino (mantle cell lymphoma, ATCC® CRL-3000™), Z-138 (mantle cell lymphoma, ATCC® CRL-3001™) and DOHH2 (follicular lymphoma, Creative Bioarray CSC-C0219) using cell viability reagent Alamar Blue (Invitrogen, #DAL 1100). Cells were cultured in 10% FB S-supplemented (HyClone, #SH3008803/Gibco, #16140-071) RPMI-1640 (PanEco, #S330p) for at least 1 passage after thawing, washed with PBS and passaged in 96-well culture plates (Corning, #3599) with growth medium with 10% FBS (HyClone, #SH3008803/Gibco, #16140-071) and antibiotic (50 μg/ml of gentamicin (Biolot, #1.3.16))≈3*10^4 cells in 50 μl of medium per well.
The compounds were dissolved in DMSO and diluted with the assay medium to final concentrations ranging from […]. 150 μl of each diluted compound were then added to each well (final concentration of DMSO was less than 1%) and incubated at 37° C. in an incubator under 5% of CO2 for 72 h. After incubation, 20 μl of Alamar Blue reagent (Invitrogen, #DAL1100) were added to each well. The plates were shaked on an orbital shaker (Biosan, Latvia) and then incubated for 14-16 hours at 37° C. in the incubator.
The number of living cells were estimated, measuring the fluorescence signal at the excitation wavelength (REx) of 540 nm and the emission wavelength (λEm) of 590 nm on a microplate reader (Tecan Infinite M200Pro, Switzerland).
For each compound, IC50 was calculated using Magellan 7.2 software (Tecan, Switzerland) approximating experimental points by four-parameter logistic model with the optimization by Levenberg-Marquardt.

Series [3] deals with Z-138 (mantle cell lymphoma). In words: Antiproliferative activity, Z-138 cells (Alamar Blue). Type of series: cell-based. Particulars: Homo sapiens, Table 10, 72 h, average of several tests. Summed up:
(§1)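 After at least one passage post-thaw, cells were seeded at ≈3*10^4 per well in RPMI-1640 containing 10% FBS. They were treated with compound dilutions (DMSO under 1%) for 72 h and then with Alamar Blue for 14-16 h. Living-cell fluorescence at 540/590 nm gave IC50 values through logistic fitting.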

Series [4] has as its system Mino (mantle cell lymphoma). Description: Antiproliferative activity, Mino cells (Alamar Blue). Particulars: Homo sapiens, Table 10, 72 h, average of several tests. The class given is cell-based. Summed up: as §1
Series [5] in a line: General cytotoxicity on HepG2 cells (CC50; therapeutic index CC50 HepG2/IC50 Mino). Type of series: cell-based. The conditions noted are these: human, HepG2 cells (hepatocellular carcinoma); Table 10; 72 hours, Alamar Blue; average of several tests. A digest of the protocol:
(§2)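 Cells seeded at 2*10^4 per well in DMEM, compounds added after 24 h at 200 μM to 4 μM final and incubated 72 h. Viability read with Alamar Blue to derive CC50; therapeutic index is CC50 (HepG2) divided by IC50 (Mino).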

For series [6], the system named is HepG2 cells (hepatocellular carcinoma). Described as above. Particulars: Table 10; therapeutic index. Type of series: cell-based. A digest of the protocol: as §2
Series [7] is described as follows: Permeability through the monolayer of Caco-2 cells. Type of series: in vitro ADME. Particulars: human. The source says:
Assessment of permeability through the monolayer of Caco-2 cells allows to evaluate the ability of the candidate compounds to penetrate through biological membranes by active and passive transport.
Caco-2, the cells of the intestinal epithelium, had been cultured in transwell plate inserts with the filters (with pores of 0.4 μm, BD Falcon with High Density, #353495) for 21 days, and then the integrity of the monolayer were estimated with Lucifer Yellow dye (Sigma-Aldrich, USA) by standard protocol. When setting the A→B transfer, solutions of test substances were added in a buffer with pH 6.5 (Hanks solution, 10 mM HEPES, 15 mM glucose solution) with the concentration of 10 μM into the upper chamber; the lower chamber was filled with a buffer with pH 7.4 (Hanks solution, 10 mM HEPES, 15 mM glucose solution, 1% BSA). When setting B→A transfer, the upper chamber was filled with the buffer with pH 6.5, and solutions of the test substances were added in the buffer with pH 7.4 at the concentration of 10 μM in the lower chamber. Propranolol was used as a control substance (as it has high permeability).
We used gradient elution (1 mL/min flow rate). We determined the areas of peaks corresponding to the compounds. On the basis of peak areas in the calibration standards we determined the concentration of compound in the initial solution and in the samples from the wells of the upper and lower chambers.
Papp, permeability through the cell layer, was calculated using the following formula:
Papp=(C(t)*V)/(C(0)*t*Area), where
Papp is the effective constant of permeability, m/s V is the volume of solution (0.8 ml in A→B test, 0.2 ml in B→A test), ml Area is the surface area of the membrane (0.33 cm^2), cm^2 t is the time of incubation (7200 sec), sec C(0) is the concentration of the initial solution, μM C(t) is the concentration of the solution after 2 hours (the concentration in the sample from the well of the lower chamber in A→B test; the concentration in the sample from the well of the top chamber in B→A test), μM
The value was calculated with the following formula:
efflux=Papp B-A/Papp A-B, where
Papp A-B is the value of the permeability in the direct test (A→B); Papp B-A is the value of the permeability in the backward test in (B→A).

The nature of series [8]: Chemical stability in artificial gastric fluid (SGF without enzymes). The conditions noted are these: 10 μM in SGF without enzymes, pH=1.4, 37° C.

On to `C=CC(=O)N1CCC[C@@H](n2nc(-c3ccc(-n4ccc(=O)cc4)cc3F)c3cncc(Cl)c32)C1` [BCD-BTK-204, (R)-1-(4-(1-(1-acryloylpiperidin-3-yl)-7-chloro-1H-pyrazolo[4,3-c]pyridin-3-yl)-3-fluorophenyl)pyridin-4(1H)-one], for which the “Amount of substance in the sample, % (stability in human blood plasma)” value (from here on “Amount of substance in the sample, %”) in series [1] was 91.9%. Further, the IC50 in series [2] stood at 23.5 µM; in series [3], 20.9 µM; in series [4] it was 21 µM. The compound further returned a CC50 at 72 h in series [5] of 62 µM. Also, the “CC50 (HepG2)/IC50 (Mino)” value in series [6] came to 2.95.
`C=CC(=O)N1CCC[C@@H](n2nc(-c3ccc(-n4ccc(=O)cc4)c(F)c3)c3cncc(Cl)c32)C1` [BCD-BTK-205, (R)-1-(4-(1-(1-acryloylpiperidin-3-yl)-7-chloro-1H-pyrazolo[4,3-c]pyridin-3-yl)-2-fluorophenyl)pyridin-4(1H)-one]: in series [1], the “Amount of substance in the sample, %” value stood at 88.6%. Besides, the IC50 in series [2] came out at 20.2 µM; in series [3], 24.9 µM; in series [4], 16.6 µM. The same compound registered a CC50 at 72 h in series [5] of 57.2 µM. Further, the “CC50 (HepG2)/IC50 (Mino)” value in series [6] is listed as 3.45.
In series [7] (A→B, 2 h at 37° C.), `C=CC(=O)N1CCC[C@@H](n2nc(-c3ccc(Oc4ccncc4C#N)cc3)c3cncc(C#N)c32)C1` [BCD-BTK-213, (R)-1-(1-acryloylpiperidin-3-yl)-3-(4-(3-cyanopyridin-4-yloxy)phenyl)-1H-pyrazolo[4,3-c]pyridine-7-carbonitrile] came in with a Papp A→B at 2 h, 10 μM of 8.39 ×10⁻⁶ cm/s. This compound also yielded a Papp B→A at 2 h, 10 μM in series [7] (B→A, 2 h at 37° C.) of 5.17 ×10⁻⁶ cm/s. Besides, the efflux ratio at 2 h, 10 μM in series [7] (read-out: efflux (Papp B-A/Papp A-B)) stood at 0.62. Besides, the IC50 in series [2] stood at 19.7 µM; in series [3], 9.7 µM; in series [4], 3.19 µM. The CC50 at 72 h in series [5] was more than 100 µM. Also, the “CC50 (HepG2)/IC50 (Mino)” value in series [6] is more than 31.3.
On to `C=CC(=O)N1CCC[C@@H](n2nc(-c3ccc(C(=O)Nc4cc(C(F)(F)F)ccn4)cc3)c3cncc(C#N)c32)C1` [BCD-BTK-221, 4-{7-cyano-1-[1-(prop-2-enoyl)piperidin-3-yl]-1H-pyrazolo[4,3-c]pyridin-3-yl}-N-[4-(trifluoromethyl)pyridin-2-yl]benzamide], for which, in series [1], the “Amount of substance in the sample, %” value was 80.5%. The IC50 in series [2] was 3.05 µM; in series [3], 4.98 µM; in series [4] it was 10.5 µM. Besides, in series [8], the “Amount of substance in the sample in % (chemical stability)” value (from here on “Amount of substance in the sample in %”) came out at 91.3%. In series [5], this compound displayed a CC50 at 72 h of 5.32 µM. Also, the “CC50 (HepG2)/IC50 (Mino)” value in series [6] is listed as 0.51.
In the case of `CC#CC(=O)N1CCC[C@H]1Cn1nc(-c2ccc(Oc3ccncc3)cc2)c2cncc(Cl)c21` [BCD-BTK-259, (S)-1-(2-((7-chloro-3-(4-(pyridin-4-yloxy)phenyl)-1H-pyrazolo[4,3-c]pyridin-1-yl)methyl)pyrrolidin-1-yl)but-2-yn-1-one], in series [1], the “Amount of substance in the sample, %” value is 90.7%. Besides, the IC50 worked out at 17 µM in series [2], 27.5 µM in series [3] and 16.3 µM in series [4]. The “Amount of substance in the sample in %” value in series [8] was 100%. The compound also yielded a 50% cytotoxic concentration (CC50) at 72 h in series [5] of 47.6 µM. The “CC50 (HepG2)/IC50 (Mino)” value in series [6] is on record as 2.91.
With `C=CC(=O)N1CCC[C@@H](n2nc(-c3cnc(C(=O)Nc4cccc(F)n4)nc3)c3cncc(Cl)c32)C1` [BCD-BTK-277, (R)-5-(1-(1-acryloylpiperidin-3-yl)-7-chloro-1H-pyrazolo[4,3-c]pyridin-3-yl)-N-(6-fluoropyridin-2-yl)pyrimidine-2-carboxamide], the IC50 in series [2] was found to be 20.6 µM; in series [3], 30.1 µM; in series [4] it was 17.9 µM. For the same compound, the “Amount of substance in the sample in %” value in series [8] was determined as 99.8%. This compound also came in with a CC50 at 72 h in series [5] of 41.9 µM. Besides, the “CC50 (HepG2)/IC50 (Mino)” value in series [6] amounted to 2.33.
